Assay results reported in ChEMBL document CHEMBL5543127, “Design, Synthesis, and Biological Evaluation of 2-Phenoxyalkylhydrazide Benzoxazole Derivatives as Quorum Sensing Inhibitors with Strong Antibiofilm Effect” (J Med Chem, 2024).
Values after ≈ are worked out from the molar mass of the structure shown. Active and inactive are the calls of the source. The calls are words filed in the database; no cut-off is given here.

How the values were obtained:
Pseudomonas aeruginosa [1] = assay: Anti-microbial activity against penicillin-susceptible Pseudomonas aeruginosa 27853 incubated for 20 hrs By CLSI based micro-dilution method; type: functional
[2] = Inhibition of quorum sensing system in Pseudomonas aeruginosa PAO1 at logarithmic growth period assessed as inhibition of pyocyanin production at 102.4 microg/ml incubated for 18 hrs by pyocyanin inhibition assay; conditions: dose 102.4 µg/ml
Bacillus pumilus = assay: Anti-microbial activity against Bacillus pumilus CMCC63202 incubated for 20 hrs By CLSI based micro-dilution method; type: functional
Escherichia coli = assay: Anti-microbial activity against penicillin-susceptible Escherichia coli ATCC25922 incubated for 20 hrs By CLSI based micro-dilution method; type: functional
Staphylococcus aureus [3] = assay: Anti-microbial activity against erythromycin-susceptible Staphylococcus aureus ATCC25923 incubated for 20 hrs By CLSI based micro-dilution method; type: functional
Bacillus subtilis = assay: Anti-microbial activity against Bacillus subtilis ATCC9372 incubated for 20 hrs By CLSI based micro-dilution method; type: functional
Pseudomonas aeruginosa [4] = assay: Anti-microbial activity against Pseudomonas aeruginosa PAO1 incubated for 20 hrs By CLSI based micro-dilution method; type: functional
Staphylococcus aureus [5] = assay: Anti-microbial activity against methicillin-resistant Staphylococcus aureus ATCC43300 incubated for 20 hrs By CLSI based micro-dilution method; type: functional
Pseudomonas aeruginosa [6] = assay: Antibacterial activity against Pseudomonas aeruginosa PAO1 at logarithmic growth phase assessed as growth inhibition at 153.6 microg/ml measured upto 25 hrs by growth curve assay; type: functional, organism-based; conditions: dose 153.6 µg/ml
Pseudomonas aeruginosa [7] = assay: Antibacterial activity against Pseudomonas aeruginosa 27853 at logarithmic growth phase assessed as growth inhibition at 153.6 microg/ml measured upto 25 hrs by growth curve assay; type: functional, organism-based; conditions: dose 153.6 µg/ml
Pseudomonas aeruginosa [8] = assay: Inhibition of protease in logarithmic growth phase Pseudomonas aeruginosa PAO1 assessed as inhibition rate at 102.4 microg/ml measured after 32 hrs; conditions: dose 102.4 µg/ml
Pseudomonas aeruginosa [9] = assay: Antibiofilm activity against logarithmic growth phase Pseudomonas aeruginosa PAO1 assessed as inhibition of biofilm formation at 16 microg/ml incubated for 20 hrs by crystal violet staining based analysis; type: functional; conditions: dose 16.0 µg/ml
Pseudomonas aeruginosa [10] = assay: Antibiofilm activity against logarithmic growth phase Pseudomonas aeruginosa PAO1 assessed as inhibition of biofilm formation at 32 microg/ml incubated for 20 hrs by crystal violet staining based analysis; type: functional
Pseudomonas aeruginosa [11] = assay: Induction of anti-bacterial effect in Pseudomonas aeruginosa PAO1 assessed as synergistic effect by measuring reduction in bacterial survival in presence of clarithromycin measured after 24 hrs incubation; type: functional, organism-based; conditions: dose 8-128 µg/ml
Pseudomonas aeruginosa [12] = assay: Induction of anti-bacterial effect in Pseudomonas aeruginosa PAO1 assessed as synergistic effect by measuring reduction in bacterial survival in presence of ciprofloxacin measured after 24 hrs incubation; type: functional, organism-based; conditions: dose 8-128 µg/ml

Compound | MIC (Pseudomonas aeruginosa [1]) [µg/mL] | inhibition [2] | MIC (Bacillus pumilus) [µg/mL] | MIC (Escherichia coli) [µg/mL] | MIC (Staphylococcus aureus [3]) [µg/mL] | MIC (Bacillus subtilis) [µg/mL] | MIC (Pseudomonas aeruginosa [4]) [µg/mL] | MIC (Staphylococcus aureus [5]) [µg/mL] | Activity (Pseudomonas aeruginosa [6]) | Activity (Pseudomonas aeruginosa [7]) | inhibition (Pseudomonas aeruginosa [8]) [%] | inhibition (Pseudomonas aeruginosa [9]) | inhibition at 32 µg/mL (Pseudomonas aeruginosa [10]) [%] | Activity (Pseudomonas aeruginosa [11]) | Activity (Pseudomonas aeruginosa [12])
COc1ccccc1/C=N/Nc1nc2ccccc2o1 | > 512 | inactive | > 512 | > 512 | 256 (≈ 958 µM) | 512 (≈ 1920 µM) | > 512 | > 512 | inactive | inactive |  |  |  |  | 
Clc1cccc(/C=N/Nc2nc3ccccc3o2)c1 | > 512 | inactive | 512 (≈ 1880 µM) | > 512 | 256 (≈ 942 µM) | 512 (≈ 1880 µM) | > 512 | > 512 | inactive | inactive |  |  |  |  | 
O=C(CCCCCOc1cccc(F)c1)NNc1nc2ccccc2o1 | 512 (≈ 1430 µM) | inactive | > 512 | > 512 | 256 (≈ 716 µM) | 512 (≈ 1430 µM) | > 512 | > 512 |  |  |  |  |  |  | 
CCCCCCCCCCCC(=O)N/N=c1\sc2ccccc2n1C | > 512 |  | > 512 | > 512 | > 512 | > 512 | > 512 | > 512 | inactive | inactive | > 20 |  |  |  | 
COc1ccc(/C=N/Nc2nc3ccccc3o2)cc1OC | > 512 | 40.3% | 256 (≈ 861 µM) | > 512 | 128 (≈ 431 µM) | 512 (≈ 1720 µM) | > 512 | 256 (≈ 861 µM) | inactive | inactive | 21.9 | Active | > 25.4 |  | 
O=C(CCCCCOc1ccc(F)cc1)NNc1nc2ccccc2o1 | 512 (≈ 1430 µM) | inactive | > 512 | > 512 | 512 (≈ 1430 µM) | 512 (≈ 1430 µM) | > 512 | > 512 |  |  |  |  |  |  | 
CCCC(=O)N/N=c1\sc2ccccc2n1C | > 512 | Active | > 512 | > 512 | 512 (≈ 2050 µM) | > 512 | > 512 | > 512 |  |  |  |  |  |  | 
COc1cccc(/C=N/Nc2nc3ccccc3o2)c1 | > 512 | inactive | 512 (≈ 1920 µM) | > 512 | 128 (≈ 479 µM) | 512 (≈ 1920 µM) | > 512 | > 512 | inactive | inactive |  |  |  |  | 
Brc1ccccc1/C=N/Nc1nc2ccccc2o1 | > 512 | inactive | > 512 | > 512 | 128 (≈ 405 µM) | 512 (≈ 1620 µM) | > 512 | 256 (≈ 810 µM) |  |  |  |  |  |  | 
O=C(CCCOc1ccc(Cl)cc1)NNc1nc2ccccc2o1 | 512 (≈ 1480 µM) | inactive | 512 (≈ 1480 µM) | > 512 | 256 (≈ 740 µM) | 512 (≈ 1480 µM) | > 512 | 256 (≈ 740 µM) |  |  | 30 | Active | > 25.4 | Dose-Dependent Effect | Dose-Dependent Effect
Cc1cccc2sc(NNC(=O)CCCCOc3ccc(Cl)cc3)nc12 | > 512 | 42.2% | 512 (≈ 1310 µM) | > 512 | > 512 | 512 (≈ 1310 µM) | > 512 | 512 (≈ 1310 µM) |  |  |  |  |  |  | 
Cc1ccc(OCC(=O)NNc2nc3ccccc3o2)cc1 | 512 (≈ 1720 µM) | inactive | > 512 | > 512 | 512 (≈ 1720 µM) | 512 (≈ 1720 µM) | > 512 | 512 (≈ 1720 µM) | inactive | inactive | 13.9 |  |  |  | 
O=C(CCCCCOc1ccc(Cl)cc1)NNc1nc2ccccc2o1 | 512 (≈ 1370 µM) | inactive | 256 (≈ 685 µM) | > 512 | 256 (≈ 685 µM) | 512 (≈ 1370 µM) | > 512 | 256 (≈ 685 µM) |  |  |  |  |  |  | 
CCCCCCCC(=O)N/N=c1\sc2ccccc2n1C | > 512 |  | > 512 | > 512 | > 512 | > 512 | > 512 | > 512 |  |  | > 20 |  |  |  | 
